# Reference: patent US8791102B2, “Acetanilide sphingosine-1-phosphate receptor antagonists” (Exelixis, Inc., priority 2008, dated 2014)
# Target: T1, human S1P1 receptors (Homo sapiens, UniProt P21453)
# T1 construct: host or cells: HEK293
# Assay: S1P1R antagonist assay (fluorescent membrane potential dye, cAMP readout)
# Format: cell-based
# Conditions: HEK293 cells expressing human S1P1 receptors and CNG channel; 500 nM NECA; S1P1R agonist 10 nM; 90 minutes; read-out: EC50 or IC50 value
# T1 sequence (P21453 whole entry): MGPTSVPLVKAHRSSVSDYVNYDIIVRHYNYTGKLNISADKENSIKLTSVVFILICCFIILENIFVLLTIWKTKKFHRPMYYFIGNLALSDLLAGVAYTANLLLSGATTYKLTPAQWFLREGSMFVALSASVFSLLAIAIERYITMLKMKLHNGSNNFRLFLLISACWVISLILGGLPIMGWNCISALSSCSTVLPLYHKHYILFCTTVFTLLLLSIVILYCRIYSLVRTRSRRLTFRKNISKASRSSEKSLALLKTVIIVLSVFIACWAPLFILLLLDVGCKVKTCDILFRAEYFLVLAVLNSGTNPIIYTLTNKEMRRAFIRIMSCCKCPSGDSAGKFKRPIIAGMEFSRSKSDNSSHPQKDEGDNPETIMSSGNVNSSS
row,Compound,IC50 [nM]
1,"O=C(Cc1cccc2ccccc12)NC(COCc1ccccc1)C(=O)Nc1ccc(Oc2ccccc2)cc1 (centres unmarked) [Compound 375, N-(2-oxo-1-{[(phenylmethyl)oxy]methyl}-2-{[4-(phenyloxy)phenyl]amino}ethyl)-2-(naphthalen-1-yl)acetamide]",> 1000
2,"CCOCCC(=O)NC(COCc1ccccc1)C(=O)Nc1ccc(Oc2ccccc2)cc1 (centres unmarked) [Compound 376, N-(2-oxo-1-{[(phenylmethyl)oxy]methyl}-2-{[4-(phenyloxy)phenyl]amino}ethyl)-3-ethoxypropanamide]",> 1000
3,"O=C(Cc1cccc(Cl)c1)NC(COCc1ccccc1)C(=O)Nc1ccc(Oc2ccccc2)cc1 (centres unmarked) [Compound 377, N-(2-oxo-1-{[(phenylmethyl)oxy]methyl}-2-{[4-(phenyloxy)phenyl]amino}ethyl)-2-(3-chlorophenyl)acetamide]",300 to 1000
4,"CCCCc1ccc(C(=O)NC(COCc2ccccc2)C(=O)Nc2ccc(Oc3ccccc3)cc2)nc1 (centres unmarked) [Compound 378, 5-butyl-N-(2-oxo-1-{[(phenylmethyl)oxy]methyl}-2-{[4-(phenyloxy)phenyl]amino}ethyl)pyridine-2-carboxamide]",300 to 1000
5,"Cc1cc(C(=O)NC(COCc2ccccc2)C(=O)Nc2ccc(Oc3ccccc3)cc2)ccc1Cl (centres unmarked) [Compound 379, 4-chloro-3-methyl-N-(2-oxo-1-{[(phenylmethyl)oxy]methyl}-2-{[4-(phenyloxy)phenyl]amino}ethyl)benzamide]",> 1000
6,"N#Cc1ccc(C(=O)NC(COCc2ccccc2)C(=O)Nc2ccc(Oc3ccccc3)cc2)cc1 (centres unmarked) [Compound 380, 4-cyano-N-(2-oxo-1-{[(phenylmethyl)oxy]methyl}-2-{[4-(phenyloxy)phenyl]amino}ethyl)benzamide]",> 1000
7,"CO[C@H](C(=O)NC(COCc1ccccc1)C(=O)Nc1ccc(Oc2ccccc2)cc1)c1ccccc1 (stereo partly drawn) [Compound 381, N-(2-oxo-1-{[(phenylmethyl)oxy]methyl}-2-{[4-(phenyloxy)phenyl]amino}ethyl)-2S-methoxy-2-phenylacetamide]",> 1000
8,"COc1ccc(OC)c(CCC(=O)NC(COCc2ccccc2)C(=O)Nc2ccc(Oc3ccccc3)cc2)c1 (centres unmarked) [Compound 382, N-(2-oxo-1-{[(phenylmethyl)oxy]methyl}-2-{[4-(phenyloxy)phenyl]amino}ethyl)-3-(2,5-dimethoxyphenyl)propanamide]",> 1000
9,"O=C(CCc1c[nH]c2ccccc12)NC(COCc1ccccc1)C(=O)Nc1ccc(Oc2ccccc2)cc1 (centres unmarked) [Compound 383, N-(2-oxo-1-{[(phenylmethyl)oxy]methyl}-2-{[4-(phenyloxy)phenyl]amino}ethyl)-3-(1H-indol-3-yl)propanamide]",> 1000
10,"O=C(Cc1cccc(Br)c1)NC(COCc1ccccc1)C(=O)Nc1ccc(Oc2ccccc2)cc1 (centres unmarked) [Compound 384, N-(2-oxo-1-{[(phenylmethyl)oxy]methyl}-2-{[4-(phenyloxy)phenyl]amino}ethyl)-2-(3-bromophenyl)acetamide]",> 1000
11,"CCC(C)CC(=O)NC(COCc1ccccc1)C(=O)Nc1ccc(Oc2ccccc2)cc1 (centres unmarked) [Compound 385, 3-methyl-N-(2-oxo-1-{[(phenylmethyl)oxy]methyl}-2-{[4-(phenyloxy)phenyl]amino}ethyl)pentanamide]",> 1000
12,"O=C(NC(COCc1ccccc1)C(=O)Nc1ccc(Oc2ccccc2)cc1)c1cc2ccccc2[nH]1 (centres unmarked) [Compound 386, N-(2-oxo-1-{[(phenylmethyl)oxy]methyl}-2-{[4-(phenyloxy)phenyl]amino}ethyl)-1H-indole-2-carboxamide]",> 1000
13,"O=C(NC(COCc1ccccc1)C(=O)Nc1ccc(Oc2ccccc2)cc1)c1ccc(Cl)cc1F (centres unmarked) [Compound 387, 4-chloro-2-fluoro-N-(2-oxo-1-{[(phenylmethyl)oxy]methyl}-2-{[4-(phenyloxy)phenyl]amino}ethyl)benzamide]",> 1000
14,"CC(=O)OCC(=O)NC(COCc1ccccc1)C(=O)Nc1ccc(Oc2ccccc2)cc1 (centres unmarked) [Compound 388, 2-oxo-2-[(2-oxo-1-{[(phenylmethyl)oxy]methyl}-2-{[4-(phenyloxy)phenyl]amino}ethyl)amino]ethyl acetate]",> 1000
15,"O=C(NC(COCc1ccccc1)C(=O)Nc1ccc(Oc2ccccc2)cc1)c1ccsc1 (centres unmarked) [Compound 389, N-(2-oxo-1-{[(phenylmethyl)oxy]methyl}-2-{[4-(phenyloxy)phenyl]amino}ethyl)thiophene-3-carboxamide]",300 to 1000
16,"O=C(Cc1ccc(Br)cc1)NC(COCc1ccccc1)C(=O)Nc1ccc(Oc2ccccc2)cc1 (centres unmarked) [Compound 390, N-(2-oxo-1-{[(phenylmethyl)oxy]methyl}-2-{[4-(phenyloxy)phenyl]amino}ethyl)-2-(4-bromophenyl)acetamide]",> 1000
17,"O=C(Cc1ccccc1Cl)NC(COCc1ccccc1)C(=O)Nc1ccc(Oc2ccccc2)cc1 (centres unmarked) [Compound 391, N-(2-oxo-1-{[(phenylmethyl)oxy]methyl}-2-{[4-(phenyloxy)phenyl]amino}ethyl)-2-(2-chlorophenyl)acetamide]",> 1000
18,"COc1cc(CC(=O)NC(COCc2ccccc2)C(=O)Nc2ccc(Oc3ccccc3)cc2)cc(OC)c1OC (centres unmarked) [Compound 392, N-(2-oxo-1-{[(phenylmethyl)oxy]methyl}-2-{[4-(phenyloxy)phenyl]amino}ethyl)-2-(3,4,5-trimethoxyphenyl)acetamide]",300 to 1000
19,"Cc1ccc(OCC(=O)NC(COCc2ccccc2)C(=O)Nc2ccc(Oc3ccccc3)cc2)cc1 (centres unmarked) [Compound 393, N-(2-oxo-1-{[(phenylmethyl)oxy]methyl}-2-{[4-(phenyloxy)phenyl]amino}ethyl)-2-(p-tolyloxy)acetamide]",> 1000

# Results, then the molecule that gave them:
row,IC50 [nM],Compound
1,> 1000,"COc1ccccc1CCC(=O)NC(COCc1ccccc1)C(=O)Nc1ccc(Oc2ccccc2)cc1 (centres unmarked) [Compound 394, N-(2-oxo-1-{[(phenylmethyl)oxy]methyl}-2-{[4-(phenyloxy)phenyl]amino}ethyl)-3-(2-methoxyphenyl)propanamide]"
2,> 1000,"O=C(NC(COCc1ccccc1)C(=O)Nc1ccc(Oc2ccccc2)cc1)c1nc2ccccc2nc1O (centres unmarked) [Compound 395, 3-hydroxy-N-(2-oxo-1-{[(phenylmethyl)oxy]methyl}-2-{[4-(phenyloxy)phenyl]amino}ethyl)quinoxaline-2-carboxamide]"
3,> 1000,"CC(=O)c1ccc(C(=O)NC(COCc2ccccc2)C(=O)Nc2ccc(Oc3ccccc3)cc2)cc1 (centres unmarked) [Compound 396, 4-acetyl-N-(2-oxo-1-{[(phenylmethyl)oxy]methyl}-2-{[4-(phenyloxy)phenyl]amino}ethyl)benzamide]"
4,300 to 1000,"COC(=O)c1ccc(C(=O)NC(COCc2ccccc2)C(=O)Nc2ccc(Oc3ccccc3)cc2)cc1 (centres unmarked) [Compound 397, methyl 4-{[(2-oxo-1-{[(phenylmethyl)oxy]methyl}-2-{[4-(phenyloxy)phenyl]amino}ethyl)amino]carbonyl}benzoate]"
5,> 1000,"O=C(NC(COCc1ccccc1)C(=O)Nc1ccc(Oc2ccccc2)cc1)c1cc(F)cc(C(F)(F)F)c1 (centres unmarked) [Compound 398, 3-fluoro-N-(2-oxo-1-{[(phenylmethyl)oxy]methyl}-2-{[4-(phenyloxy)phenyl]amino}ethyl)-5-(trifluoromethyl)benzamide]"
6,> 1000,"O=C(NC(COCc1ccccc1)C(=O)Nc1ccc(Oc2ccccc2)cc1)c1ccc(OC(F)F)cc1 (centres unmarked) [Compound 399, 4-[(difluoromethyl)oxy]-N-(2-oxo-1-{[(phenylmethyl)oxy]methyl}-2-{[4-(phenyloxy)phenyl]amino}ethyl)benzamide]"
7,> 1000,"Cc1ccc(C(=O)NC(COCc2ccccc2)C(=O)Nc2ccc(Oc3ccccc3)cc2)cc1F (centres unmarked) [Compound 400, 3-fluoro-4-methyl-N-(2-oxo-1-{[(phenylmethyl)oxy]methyl}-2-{[4-(phenyloxy)phenyl]amino}ethyl)benzamide]"
8,> 1000,"Cc1ccoc1C(=O)NC(COCc1ccccc1)C(=O)Nc1ccc(Oc2ccccc2)cc1 (centres unmarked) [Compound 401, 3-methyl-N-(2-oxo-1{[(phenylmethyl)oxy]methyl}-2-{[4-(phenyloxy)phenyl]amino}ethyl)furan-2-carboxamide]"
9,> 1000,"O=C(NC(COCc1ccccc1)C(=O)Nc1ccc(Oc2ccccc2)cc1)C1CCC1 (centres unmarked) [Compound 402, N-(2-oxo-1-{[(phenylmethyl)oxy]methyl}-2-{[4-(phenyloxy)phenyl]amino}ethyl)cyclobutanecarboxamide]"
10,300 to 1000,"O=C(CCc1cccs1)NC(COCc1ccccc1)C(=O)Nc1ccc(Oc2ccccc2)cc1 (centres unmarked) [Compound 403, N-(2-oxo-1-{[(phenylmethyl)oxy]methyl}-2-{[4-(phenyloxy)phenyl]amino}ethyl)-3-(thiophen-2-yl)propanamide]"
